What follows are molecules tested on MCH receptors (assay: MCH receptor activity class (method not given)). Conditions: class by percent of control at 10^-7 M or IC50.

| Compound | class |
| --- | --- |
| Cc1c(C(=O)N[C@H]2CC[C@@H](Nc3nccc(N(C)C)n3)CC2)cc(-c2ccccc2)n1CCCN1CCOCC1 [compound 863, N-(cis-4-{[4-(dimethylamino)pyrimidin-2-yl]amino}cyclohexyl)-2-methyl-1-(3-morpholin-4-ylpropyl)-5-phenyl-1H-pyrrole-3-carboxamide] | 2 (Class 2: The value of percent of control at 10^−7 M was from 40% to 60% or the value of IC′50 was from 50 nM to 200 nM.) |
| CN(C)c1ccnc(N[C@H]2CC[C@@H](NC(=O)CCCc3ccc([N+](=O)[O-])cc3)CC2)n1 [compound 864, N-(cis-4-{[4-(dimethylamino)pyrimidin-2-yl]amino}cyclohexyl)-4-(4-nitrophenyl)butanamide] | 2 (Class 2: The value of percent of control at 10^−7 M was from 40% to 60% or the value of IC′50 was from 50 nM to 200 nM.) |
| CN(C)c1ccnc(N[C@H]2CC[C@@H](NC(=O)/C=C/c3ccccc3[N+](=O)[O-])CC2)n1 [compound 866] | 3 (Class 3 The value of percent of control at 10^−7 M was more than 60% or the value of IC50 was more than 200 nM.) |
| CN(C)c1ccnc(N[C@H]2CC[C@@H](NC(=O)Cc3cccc(Oc4ccccc4)c3)CC2)n1 [compound 867] | 3 (Class 3 The value of percent of control at 10^−7 M was more than 60% or the value of IC50 was more than 200 nM.) |
| CN(C)c1ccnc(N[C@H]2CC[C@@H](NC(=O)Cc3ccc(Oc4ccccc4)cc3)CC2)n1 [compound 868] | 3 (Class 3 The value of percent of control at 10^−7 M was more than 60% or the value of IC50 was more than 200 nM.) |
| CN(C)c1ccnc(N[C@H]2CC[C@@H](NC(=O)Cc3c(-c4ccccc4)[nH]c4ccccc34)CC2)n1 [compound 869, N-(cis-4-{[4-(dimethylamino)pyrimidin-2-yl]amino}cyclohexyl)-2-(2-phenyl-1H-indol-3-yl)acetamide] | 1 (Class 1: The value of percent of control at 10^−7 M was less than 40% or the value of IC50 was less than 50 nM.) |
| CN(C)c1ccnc(N[C@H]2CC[C@@H](NC(=O)c3cccc(Oc4ccccc4)c3)CC2)n1 [compound 871] | 2 (Class 2: The value of percent of control at 10^−7 M was from 40% to 60% or the value of IC′50 was from 50 nM to 200 nM.) |
| CN(C)c1ccnc(N[C@H]2CC[C@@H](NC(=O)c3ccccc3CCc3ccccc3)CC2)n1 [compound 872] | 3 (Class 3 The value of percent of control at 10^−7 M was more than 60% or the value of IC50 was more than 200 nM.) |
| CN(C)c1ccnc(N[C@H]2CC[C@@H](NC(=O)c3cccc(C(=O)c4ccccc4)c3)CC2)n1 [compound 873] | 2 (Class 2: The value of percent of control at 10^−7 M was from 40% to 60% or the value of IC′50 was from 50 nM to 200 nM.) |
| CCSC(C(=O)N[C@H]1CC[C@@H](Nc2nccc(N(C)C)n2)CC1)(c1ccccc1)c1ccccc1 [compound 874, N-(cis-4-{[4-(dimethylamino)pyrimidin-2-yl]amino}cyclohexyl)-2-(ethylthio)-2,2-diphenylacetamide] | 1 (Class 1: The value of percent of control at 10^−7 M was less than 40% or the value of IC50 was less than 50 nM.) |
| CN(C)c1ccnc(N[C@H]2CC[C@@H](NC(=O)c3ccccc3Sc3ccccc3C#N)CC2)n1 [compound 875] | 3 (Class 3 The value of percent of control at 10^−7 M was more than 60% or the value of IC50 was more than 200 nM.) |
| COc1cc(CC(=O)N[C@H]2CC[C@@H](Nc3nccc(N(C)C)n3)CC2)ccc1OCc1ccccc1 [compound 876] | 3 (Class 3 The value of percent of control at 10^−7 M was more than 60% or the value of IC50 was more than 200 nM.) |
| C[C@@H](NC(=O)c1ccccc1C(=O)N[C@H]1CC[C@@H](Nc2nccc(N(C)C)n2)CC1)c1cccc2ccccc12 [compound 877, N-(cis-4-{[4-(dimethylamino)pyrimidin-2-yl]amino}cyclohexyl)-N′-[(1R)-1-(1-naphthyl)ethyl]phthalamide] | 2 (Class 2: The value of percent of control at 10^−7 M was from 40% to 60% or the value of IC′50 was from 50 nM to 200 nM.) |
